The values that follow come from publication PMC6934184, “Selective DNA-PKcs inhibition extends the therapeutic index of localized radiotherapy and chemotherapy” (The Journal of Clinical Investigation, 2019).

In this assay the target is T1, CDC42 BPA (MRCKA) (Homo sapiens, UniProt Q5VT25).
T1 construct: purchased Thermo Fisher Scientific (Life Technologies) SelectScreen
Description: SelectScreen Z'LYTE. The format is biochemical. The gist of the method: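 SelectScreen broad panel; activity (Z'LYTE, Adapta) plus binding formats. ATP: Km app for CSF1R Z'LYTE; 10 for CAMK1 Adapta. Readout = % per kinase.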

T1 sequence (Q5VT25 whole entry): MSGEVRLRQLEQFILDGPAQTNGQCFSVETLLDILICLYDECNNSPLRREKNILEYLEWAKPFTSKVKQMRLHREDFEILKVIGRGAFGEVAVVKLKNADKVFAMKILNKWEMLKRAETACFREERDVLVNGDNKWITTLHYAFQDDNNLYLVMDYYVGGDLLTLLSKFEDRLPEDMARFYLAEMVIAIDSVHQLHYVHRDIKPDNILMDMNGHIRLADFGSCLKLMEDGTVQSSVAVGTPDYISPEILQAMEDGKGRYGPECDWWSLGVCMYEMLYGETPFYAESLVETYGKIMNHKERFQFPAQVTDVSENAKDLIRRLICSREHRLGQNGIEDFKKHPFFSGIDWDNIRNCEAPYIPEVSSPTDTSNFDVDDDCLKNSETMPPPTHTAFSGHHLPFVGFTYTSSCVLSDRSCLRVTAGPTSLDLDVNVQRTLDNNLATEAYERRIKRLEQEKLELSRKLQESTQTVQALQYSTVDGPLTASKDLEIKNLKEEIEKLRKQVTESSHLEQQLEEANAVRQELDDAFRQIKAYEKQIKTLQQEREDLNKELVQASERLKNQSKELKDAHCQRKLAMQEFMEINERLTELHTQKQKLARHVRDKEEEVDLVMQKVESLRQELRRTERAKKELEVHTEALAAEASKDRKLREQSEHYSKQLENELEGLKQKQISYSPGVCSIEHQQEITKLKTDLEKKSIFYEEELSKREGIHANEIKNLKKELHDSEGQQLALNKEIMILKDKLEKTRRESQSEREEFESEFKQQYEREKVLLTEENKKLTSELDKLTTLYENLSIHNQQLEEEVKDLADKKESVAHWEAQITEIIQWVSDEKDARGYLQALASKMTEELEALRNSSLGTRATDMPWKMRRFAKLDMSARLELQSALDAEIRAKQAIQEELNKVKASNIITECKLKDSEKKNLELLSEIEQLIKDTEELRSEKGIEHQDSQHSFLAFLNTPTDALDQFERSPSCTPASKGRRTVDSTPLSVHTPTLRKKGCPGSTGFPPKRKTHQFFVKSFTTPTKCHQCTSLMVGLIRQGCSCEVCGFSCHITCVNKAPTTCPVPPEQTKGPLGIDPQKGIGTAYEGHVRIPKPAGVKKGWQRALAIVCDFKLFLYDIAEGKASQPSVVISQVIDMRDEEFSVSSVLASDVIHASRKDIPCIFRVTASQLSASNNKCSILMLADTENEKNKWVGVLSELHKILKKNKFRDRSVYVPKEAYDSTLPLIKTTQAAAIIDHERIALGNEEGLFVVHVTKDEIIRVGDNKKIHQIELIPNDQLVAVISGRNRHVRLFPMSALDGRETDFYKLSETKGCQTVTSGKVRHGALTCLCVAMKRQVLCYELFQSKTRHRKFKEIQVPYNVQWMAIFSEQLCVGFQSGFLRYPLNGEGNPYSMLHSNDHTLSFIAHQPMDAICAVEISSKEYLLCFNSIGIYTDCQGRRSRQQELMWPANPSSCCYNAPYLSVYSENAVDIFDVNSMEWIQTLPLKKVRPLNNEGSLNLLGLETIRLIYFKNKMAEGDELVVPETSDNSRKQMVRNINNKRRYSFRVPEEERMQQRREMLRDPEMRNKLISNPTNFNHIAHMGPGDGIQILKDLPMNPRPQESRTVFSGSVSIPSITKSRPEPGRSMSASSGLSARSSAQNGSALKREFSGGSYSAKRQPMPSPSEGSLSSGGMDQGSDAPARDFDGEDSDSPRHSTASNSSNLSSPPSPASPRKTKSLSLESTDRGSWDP

One may read the inhibition as the drop in the measured response relative to a control, in per cent. High values mean strong suppression, low ones little suppression. With `CN(C(=O)CN1CCOCC1)c1ccc2sc3c(-c4cccc5c(=O)cc(N6CC7CCC(C6)O7)oc45)cccc3c2c1` [NU5455], the inhibition at 1 µM amounted to 5%.
